Experimental data from PubChem BioAssay (NCI).
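Exposure lasted 48 hours, with cells grown in 96-well plates and compounds tested at five concentrations. The concentration for 50% growth inhibition is given as GI50. At the TGI there is no net growth.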

Legend:
Assay in all cases: NCI tumour cell line growth inhibition, 48 h
[1] = tested on: KM12 colon
[2] = tested on: HL-60(TB) leukemia
[3] = tested on: NCI-H522 lung
[4] = tested on: NCI-H226 lung
[5] = tested on: MALME-3M melanoma
[6] = tested on: OVCAR-3 ovarian
[7] = tested on: HCT-15 colon
[8] = tested on: COLO 205 colon
[9] = tested on: A549 NSCLC
[10] = tested on: DU-145 prostate

| SMILES | TGI [1] | TGI [2] | TGI [3] | TGI [4] | TGI [5] | TGI [6] | TGI [7] | TGI [8] | TGI [9] | TGI [10] | GI50 [1] | GI50 [2] | GI50 [10] | GI50 [3] | GI50 [4] | GI50 [5] | GI50 [6] | GI50 [7] | GI50 [8] |
| --- | --- | --- | --- | --- | --- | --- | --- | --- | --- | --- | --- | --- | --- | --- | --- | --- | --- | --- | --- |
| COc1cccc2c1C(=O)c1c(O)c3c(c(O)c1C2=O)CC(O)(C(C)=O)CC3O (stereo unspecified) | 38.5 µM | 26.5 µM | 3.09 µM | 18.6 µM | 12.7 µM | 23.8 µM | 39.8 µM | 24.7 µM | 23.4 µM | – | – | – | – | – | – | – | – | – | – |
| O=c1[nH]c(-c2ccc(Cl)cc2)cc2ccsc12 | > 100 µM | > 100 µM | > 100 µM | > 100 µM | 5.8 µM | 4.26 µM | > 100 µM | > 100 µM | > 100 µM | 6.68 µM | – | – | – | – | – | – | – | – | – |
| CCOC(=O)C1=C(C)N(c2ccc(Cl)cc2)C2(O)C=CC(Nc3ccc(Cl)cc3)=C3C(=O)N(c4ccccc4)C(=O)C312 (stereo unspecified) | 23.1 µM | 23.4 µM | 5.25 µM | – | 33.7 µM | 2.09 µM | 16.3 µM | 7.2 µM | > 100 µM | 17.8 µM | – | – | – | – | – | – | – | – | – |
| CN1CCN(Cn2nc(-c3cc(F)c(Cl)cc3Cl)oc2=S)CC1 | > 100 µM | > 100 µM | > 100 µM | > 100 µM | 74.1 µM | > 100 µM | > 100 µM | 51.6 µM | – | > 100 µM | 42.7 µM | 78.5 µM | 41.4 µM | 90.1 µM | 34.4 µM | 26.4 µM | 37.4 µM | 39.7 µM | 23.6 µM |
